Among the data in US20250092065A1, “2-(INDAZOL-5-YL)-6-(PIPERIDIN-4-YL)-1,7-NAPHTHYRIDINE DERIVATIVES AND RELATED COMPOUNDS AS MODULATORS FOR SPLICING NUCLEIC ACIDS AND FOR THE TREATMENT OF PROLIFERATIVE DISEASES” (REMIX THERAPEUTICS INC., priority 2022, published 2025) are IC50 and AC50 values, retold here.

The subject of assay [1] is SMN2 mRNA. In words: RT-qPCR splicing assay, SMN2 mRNA. Type of assay: cell-based, human. To be noted: Homo sapiens, canonical junction qPCR panel, Table 4; read-out: SMN2 IC50 (decrease in CJ mRNA levels). An outline of the steps: (§1)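 A673 or K562 cells treated 24 h at 37 °C with an 11-point 3-fold dilution series (top 10 uM, DMSO ≤0.25%). Lysates went directly to one-step RT-qPCR quantifying canonical (CJ) and alternative-exon (AJ) junctions, normalized to GAPDH, GUSB or PPIA. Values from ΔΔCt versus DMSO, RQ = 2^(−ΔΔCt), expressed as percentage response.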
On the technique in general: Quantitative PCR measures a nucleic acid by following its amplification.

In assay [2] the test system is HTT mRNA. As to the kind of experiment: RT-qPCR splicing assay, HTT mRNA canonical (CJ) and alternative (AJ) junction. It is filed as cell-based, human. The note with it: Homo sapiens; for AC50: HTT alternative junction mRNA, read-out: HTT AJ (increase in AJ mRNA, AC50). An outline of the steps: as §1
Setting [3] is: HTT canonical junction mRNA, RT-qPCR, read-out: HTT CJ (decrease in CJ mRNA levels, IC50).
Where [4] appears, read: canonical junction qPCR panel, Table 4, read-out: HTT IC50 (decrease in CJ mRNA levels).

The structures appear in SMILES notation. pIC50: −log10 of the molar value. Read-outs that look alike come from different tables or passages of the source.

As to `Cc1nc2c(C)c(O)c(-c3ccc4nc(N5CCC(NC6(C)CC6)C5)ccc4n3)cc2o1` (stereo not shown) [Compound 309, 2,4-dimethyl-6-(6-{3-[(1-methylcyclopropyl)amino]pyrrolidin-1-yl}-1,5-naphthyridin-2-yl)-1,3-benzoxazol-5-ol], the negative-log IC50 (pIC50) in assay [1], in assay [2] (setting [3]) and in assay [2] (setting [4]) was > 7.00 each time. The half-maximal activity concentration (AC50) (commonly the concentration giving half of the maximal activity seen) in assay [2] (RT-qPCR) is < 100 nM.

With `Cc1nc2c(C)c(O)c(-c3ccc4nc(N5CCC(NC(C)C)C5)ccc4n3)cc2o1` (stereo not shown) [Compound 312, 6-{6-[3-(isopropylamino)pyrrolidin-1-yl]-1,5-naphthyridin-2-yl}-2,4-dimethyl-1,3-benzoxazol-5-ol], the pIC50 in assay [1], in assay [2] (setting [3]) and in assay [2] (setting [4]) was > 7.00 each time. In addition, in assay [2] (RT-qPCR), the AC50 was < 100 nM.

As to `Cn1cc2cc(-c3ccc4nc(N5CCC(NC6CCC6)C5)ccc4n3)c(O)c(F)c2n1` (stereo not shown) [Compound 315, 5-{6-[3-(cyclobutylamino)pyrrolidin-1-yl]-1,5-naphthyridin-2-yl}-7-fluoro-2-methylindazol-6-ol], the negative-log IC50 (pIC50) in assay [1], in assay [2] (setting [3]) and in assay [2] (setting [4]) was > 7.00 throughout. Besides, the AC50 in assay [2] (RT-qPCR) is < 100 nM.

For the compound `Cc1c(O)c(-c2ccc3nc(N4CCC(NC(C)C)C4)ccc3n2)cc2cn(C)nc12` (stereo not shown) [Compound 318, 5-{6-[3-(isopropylamino)pyrrolidin-1-yl]-1,5-naphthyridin-2-yl}-2,7-dimethylindazol-6-ol], the negative logarithm of the IC50 (pIC50) in assay [1], in assay [2] (setting [3]) and in assay [2] (setting [4]) was > 7.00 each time. Also, the concentration at half-maximal activity (AC50) in assay [2] (RT-qPCR) was < 100 nM.

As for `Cc1c(O)c(-c2ccc3nc(N4CC[C@H](NC(C)C)C4)ccc3n2)cc2cn(C)nc12` [Compound 320], the pIC50 in assay [1], in assay [2] (setting [3]) and in assay [2] (setting [4]) was > 7.00 in each case. In assay [2] (RT-qPCR), the AC50 is < 100 nM.

`Cc1nc2c(F)c(O)c(-c3ccc4nc(N5CCC(NC6(C)CC6)C5)ccc4n3)cc2o1` (stereo not shown) [Compound 325, 4-fluoro-2-methyl-6-(6-{3-[(1-methylcyclopropyl)amino]pyrrolidin-1-yl}-1,5-naphthyridin-2-yl)-1,3-benzoxazol-5-ol]: the pIC50 in assay [1], in assay [2] (setting [3]) and in assay [2] (setting [4]) was > 7.00 throughout. Moreover, the AC50 in assay [2] (RT-qPCR) is < 100 nM.

On to `Cc1nc2c(F)c(O)c(-c3ccc4nc(N5CCC(NC(C)C)C5)ccc4n3)cc2o1` (stereo not shown) [Compound 328, 4-fluoro-6-{6-[3-(isopropylamino)pyrrolidin-1-yl]-1,5-naphthyridin-2-yl}-2-methyl-1,3-benzoxazol-5-ol], for which the pIC50 in assay [1], in assay [2] (setting [3]) and in assay [2] (setting [4]) was > 7.00 in each case. Further, the AC50 in assay [2] (RT-qPCR) was < 100 nM.

As for `CN[C@@H]1CCN(c2ccc3nc(-c4cc(F)c5nc(C)cn5c4)ncc3n2)C1` [Compound 331, (3R)-1-(2-{8-fluoro-2-methylimidazo[1,2-a]pyridin-6-yl}pyrido[3,2-d]pyrimidin-6-yl)-N-methylpyrrolidin-3-amine], the negative logarithm of the IC50 (pIC50) (commonly the IC50 on a negative log10 scale, so that one unit is a factor of ten) in assay [1] was > 7.00; in assay [2] (setting [3]) it was 6.00 to 7.00; in assay [2] (setting [4]), 6.00 to 7.00. Moreover, in assay [2] (RT-qPCR), the AC50 fell in the range of 100 to 1000 nM.

As to `CN[C@H]1CCN(c2ccc3nc(-c4cc(F)c5nc(C)cn5c4)ncc3n2)C1` [Compound 332, (S)-1-(2-(8-fluoro-2-methylimidazo[1,2-a]pyridin-6-yl)pyrido[3,2-d]pyrimidin-6-yl)-N-methylpyrrolidin-3-amine], the pIC50 in assay [1] was > 7.00; in assay [2] (setting [3]), 6.00 to 7.00; in assay [2] (setting [4]), 6.00 to 7.00. Moreover, the concentration at half-maximal activity (AC50) in assay [2] (RT-qPCR) is 100 to 1000 nM.

Regarding `CC(C)(C)NC1CCN(c2ccc3nc(-c4cc5oc(C6CC6)nc5cc4O)ccc3n2)C1` (stereo not shown) [Compound 333, 6-{6-[3-(tert-butylamino)pyrrolidin-1-yl]-1,5-naphthyridin-2-yl}-2-cyclopropyl-1,3-benzoxazol-5-ol], the pIC50 in assay [1], in assay [2] (setting [3]) and in assay [2] (setting [4]) was 6.00 to 7.00 each time. The AC50 in assay [2] (RT-qPCR) lay within 100 to 1000 nM.

With `COCc1nc2cc(O)c(-c3ccc4nc(N5CCC(NC(C)(C)C)C5)ccc4n3)cc2o1` (stereo not shown) [Compound 334, 6-{6-[3-(tert-butylamino)pyrrolidin-1-yl]-1,5-naphthyridin-2-yl}-2-(methoxymethyl)-1,3-benzoxazol-5-ol], the pIC50 in assay [1], in assay [2] (setting [3]) and in assay [2] (setting [4]) was 6.00 to 7.00 in each case. The AC50 in assay [2] (RT-qPCR) lay within 100 to 1000 nM.

Regarding `COc1cc2nc(C3COC3)oc2cc1-c1ccc2nc(N3CCC(NC(C)(C)C)C3)ccc2n1` (stereo not shown) [Compound 335], the negative logarithm of the IC50 (pIC50) in assay [1], in assay [2] (setting [3]) and in assay [2] (setting [4]) was 5.00 to 6.00 in each case. Also, the concentration at half-maximal activity (AC50) in assay [2] (RT-qPCR) was 1000 to 10000 nM.

On to `CC(C)(C)NC1CCN(c2ccc3nc(-c4cc5oc(CO)nc5cc4O)ccc3n2)C1` (stereo not shown) [Compound 336, 6-{6-[3-(tert-butylamino)pyrrolidin-1-yl]-1,5-naphthyridin-2-yl}-2-(hydroxymethyl)-1,3-benzoxazol-5-ol], for which the negative logarithm of the IC50 (pIC50) in assay [1], in assay [2] (setting [3]) and in assay [2] (setting [4]) was > 7.00 in each case. Besides, in assay [2] (RT-qPCR), the AC50 lay in the range of 100 to 1000 nM.

Regarding `CNC1CCN(c2ccc3nc(-c4cc5cn(C)nc5c(C)c4O)ncc3n2)C1` (stereo not shown) [Compound 337, 2,7-dimethyl-5-{6-[3-(methylamino)pyrrolidin-1-yl]pyrido[3,2-d]pyrimidin-2-yl}indazol-6-ol], the pIC50 was > 7.00 in assay [1], 6.00 to 7.00 in assay [2] (setting [3]) and 6.00 to 7.00 in assay [2] (setting [4]). Also, the AC50 in assay [2] (RT-qPCR) lay within 100 to 1000 nM.

With `Cc1c(O)c(-c2ncc3nc(N4CCNCC4)ccc3n2)cc2cn(C)nc12` [Compound 338, 2,7-dimethyl-5-[6-(piperazin-1-yl)pyrido[3,2-d]pyrimidin-2-yl]indazol-6-ol], the pIC50 in assay [1] is > 7.00; in assay [2] (setting [3]), 6.00 to 7.00; in assay [2] (setting [4]), 6.00 to 7.00. In assay [2] (RT-qPCR), the concentration at half-maximal activity (AC50) lay in the range of 1000 to 10000 nM.

Take `Cc1nc2cc(O)c(-c3ccc4nc(N5CCC(NC(C)(C)C)C5)ccc4n3)cc2n1C` (stereo not shown) [Compound 339, 6-{6-[3-(tert-butylamino)pyrrolidin-1-yl]-1,5-naphthyridin-2-yl}-1,2-dimethyl-1,3-benzodiazol-5-ol]: the negative-log IC50 (pIC50) in assay [1], in assay [2] (setting [3]) and in assay [2] (setting [4]) was 6.00 to 7.00 throughout. The concentration at half-maximal activity (AC50) in assay [2] (RT-qPCR) lay in the range of 100 to 1000 nM.

As for `Cc1nc2cc(-c3ccc4nc(N5CCC(NC(C)(C)C)C5)ccc4n3)c(O)cc2n1C` (stereo not shown) [Compound 340, 6-{6-[3-(tert-butylamino)pyrrolidin-1-yl]-1,5-naphthyridin-2-yl}-2,3-dimethyl-1,3-benzodiazol-5-ol], the pIC50 in assay [1], in assay [2] (setting [3]) and in assay [2] (setting [4]) was 6.00 to 7.00 in each case. Also, the concentration at half-maximal activity (AC50) in assay [2] (RT-qPCR) is 100 to 1000 nM.

`Cn1cc2cc(-c3ccc4nc(N5CCC(NC67CC(O)(C6)C7)C5)ccc4n3)c(O)cc2n1` (stereo not shown) [Compound 341, 5-{6-[3-({3-hydroxybicyclo[1.1.1]pentan-1-yl}amino)pyrrolidin-1-yl]-1,5-naphthyridin-2-yl}-2-methylindazol-6-ol]: the pIC50 in assay [1] was > 7.00; in assay [2] (setting [3]), 6.00 to 7.00; in assay [2] (setting [4]) it was 6.00 to 7.00. In addition, the concentration at half-maximal activity (AC50) in assay [2] (RT-qPCR) lay within 100 to 1000 nM.

Consider `Cc1c(O)c(-c2ncc3nc(N4CCC5(CCN5)C4)ccc3n2)cc2cn(C)nc12` (stereo not shown) [Compound 342, 5-(6-{1,6-diazaspiro[3.4]octan-6-yl}pyrido[3,2-d]pyrimidin-2-yl)-2,7-dimethylindazol-6-ol], for which the pIC50 in assay [1] is > 7.00; in assay [2] (setting [3]), 6.00 to 7.00; in assay [2] (setting [4]) it was 6.00 to 7.00. In assay [2] (RT-qPCR), the AC50 lay within 100 to 1000 nM.

With `Cc1cc2nc(-c3ccc4nc(N5CCC(NC(C)(C)C)C5)ccc4n3)cn2c(C)n1` (stereo not shown) [Compound 344, N-tert-butyl-1-(6-{5,7-dimethylimidazo[1,2-c]pyrimidin-2-yl}-1,5-naphthyridin-2-yl)pyrrolidin-3-amine], the figures for the pIC50 in assay [1], in assay [2] (setting [3]) and in assay [2] (setting [4]) were > 7.00, 5.00 to 6.00 and 5.00 to 6.00, respectively. Further, the concentration at half-maximal activity (AC50) in assay [2] (RT-qPCR) was in the range of 1000 to 10000 nM.

In the case of `CCc1nc2cc(O)c(-c3ccc4nc(N5CCC(NC(C)(C)C)C5)ccc4n3)cc2o1` (stereo not shown) [Compound 346, 6-{6-[3-(tert-butylamino)pyrrolidin-1-yl]-1,5-naphthyridin-2-yl}-2-ethyl-1,3-benzoxazol-5-ol], the pIC50 was 6.00 to 7.00 in assay [1], 5.00 to 6.00 in assay [2] (setting [3]) and 5.00 to 6.00 in assay [2] (setting [4]). Moreover, in assay [2] (RT-qPCR), the AC50 fell in the range of 1000 to 10000 nM.

With `Cc1nc2cc(O)c(-c3ccc4nc(N5CC[C@H](N[C@H]6C[C@H](F)C6)C5)ccc4n3)cc2o1` [Compound 350, 2-methyl-6-{6-[(3S)-3-{[(1r,3r)-3-fluorocyclobutyl]amino}pyrrolidin-1-yl]-1,5-naphthyridin-2-yl}-1,3-benzoxazol-5-ol], the pIC50 in assay [1], in assay [2] (setting [3]) and in assay [2] (setting [4]) was > 7.00 in each case. For the same compound, the AC50 in assay [2] (RT-qPCR) is < 100 nM.
